Patent US11400106B2, “Methods for inhibiting microbe growth” (priority 2018, dated 2022)
Where two headings read alike, the source gives them in different places. Marks after values point to notes of the source that are not given here.

Assays:
E. coli [1] = assay: Checkerboard microdilution with sodium bicarbonate against E. coli; type: cell-based, Escherichia coli
Protocol: (§1) In the following experiments, bacterial cells were cultured in 96-well microtiter plates in cation-adjusted Mueller-Hinton Broth (MHB) for 18 h at 37° C. The main strains used were E. coli (K-12 BW25113) (placed in stationary incubator) and S. aureus (Newman Strain) (incubated at 250 r.p.m). Knockout strains (ΔtolcC and ΔychM) were used from the Keio knockout collection (Baba et al., Construction of Escherichia coli K-12 in-frame, single-gene knockout mutants: the Keio collection. Mol Syst Biol 2, 2006 0008, doi:10.1038/msb4100050 (2006)). For MIC determination and checkerboard analyses, Clinical & Laboratory Standards Institute (CLSI) protocol was used. […] DiSC3 loading of S. aureus cells was performed as previously described (Farha et al., Collapsing the proton motive force to identify synergistic combinations against Staphylococcus aureus. Chemistry & biology 20, 1168-1178, doi:10.1016/j.chembiol.2013.07.006 (2013)). CCCP concentration of 20 μM was used. pH adjustments were made by addition of HCl or NaOH. INT assay and ATP bioluminescence assays were performed as previously described (Farha et al., Collapsing the proton motive force to identify synergistic combinations against Staphylococcus aureus. Chemistry & biology 20, 1168-1178, doi:10.1016/j.chembiol.2013.07.006 (2013)). For chemical-genomic studies, the Keio library was grown overnight in cation-adjusted MHB broth, in 384-well plates. From these, treatment plates (25 mM sodium bicarbonate, or a sterile water control) were inoculated and grown for 15 hours at 37° C., in a stationary incubator. Data was normalized according to Mangat et al (Mangat et al., Rank ordering plate data facilitates data visualization and normalization in high-throughput screening. J Biomol Screen 19, 1314-1320, doi:10.1177/1087057114534298 (2014)), with gene products and GO terms mined from EcoCyc. The GFP promoter library (Keseler et al., EcoCyc: fusing model organism databases with systems biology. Nucleic Acids Res 41, D605-612, doi:10.1093/nar/gks1027 (2013)) was grown for 18 hours at ambient temperature with the same inoculation strategy as with the Keio collection. The analysis pipeline of Zaslaver et al (Zaslaver et al., A comprehensive library of fluorescent transcriptional reporters for Escherichia coli. Nat Methods 3, 623-628, doi:10.1038/nmeth895 (2006)) was used to generate maps of promoter activity, from which lists of promoters with increased or decreased activity were compiled.
(§2) The effect of sodium bicarbonate on the activity of various antibacterial agents was investigated. Clinical isolates of various bacteria were obtained from the American Type Culture Collection (“ATCC”) and the International Health Management Associates (“IHMA”). Fractional inhibitory concentration indices (FICIs) were determined by setting up standard checkerboard broth microdilution assays in 96-well microtiter plates with serially diluted 8 (or 10) concentrations of each drug (sodium bicarbonate and the antibacterial agent). The protocol for checkerboard analyses was based on the CLSI guidelines. Plates were incubated at 37° C. for 18 hours, and optical density was read at 600 nm. At least 3 replicates were done for each query compound.
(§3) The FIC index (FICI) is the sum of the two FICs. Chemical-chemical interactions with ΣFIC of less or equal to 0.5 were deemed synergistic.
(§4) As validation, three of the antibiotic agents were further tested with checkerboard analyses. Checkerboard broth microdilution assays were set up in 96-well microtiter plates with serially diluted 8 (or 10) concentrations of each compound (sodium bicarbonate and the antibiotic). The protocol for checkerboard analyses was based on the CLSI guidelines. Plates were incubated at 37° C. for 18 hours, and optical density was read at 600 nm. At least 3 replicates were done for each query compound.

S. aureus [2] = assay: Checkerboard microdilution with sodium bicarbonate against S. aureus; type: cell-based, Staphylococcus aureus
Protocol: as §1, §2, §3, §4

E. coli [3] = assay: microbe, parasite or virus in culture; type: cell-based, Escherichia coli
S. aureus [4] = assay: microbe, parasite or virus in culture; conditions: for MIC, S. aureus, MHB− / MIC, S. aureus, MHB: MHB in the absence of sodium bicarbonate; for MIC, S. aureus, MHB+: MHB in the presence of 25 mM sodium bicarbonate; for MIC in MHB / MIC in MHB + 25 mM bicarbonate: S. aureus (Newman strain) (MSSA)
[5] = antibiotic agents, MHB in the absence of sodium bicarbonate
[6] = antibiotic agents, fold shift in MIC, MHB− vs MHB+
[7] = antibiotic agents, MHB in the presence of 25 mM sodium bicarbonate
[8] = antiseptic agents, fold shift in MIC

CN(C)C(=O)C(CCN1CCC(O)(c2ccc(Cl)cc2)CC1)(c1ccccc1)c1ccccc1 [loperamide]
interaction with sodium bicarbonate (checkerboard) (E. coli [1]): synergistic interactions

CC(C)[C@@H]1NC(=O)[C@H](C)OC(=O)[C@@H](C(C)C)NC(=O)[C@@H](C(C)C)OC(=O)[C@H](C(C)C)NC(=O)[C@H](C)OC(=O)[C@@H](C(C)C)NC(=O)[C@@H](C(C)C)OC(=O)[C@H](C(C)C)NC(=O)[C@H](C)OC(=O)[C@@H](C(C)C)NC(=O)[C@@H](C(C)C)OC1=O [valinomycin]
interaction with sodium bicarbonate (checkerboard) (S. aureus [2]): synergistic interactions

Colistin
MIC, E. coli, MHB+ (E. coli [3]): 0.5 μg of antimicrobial agent/mL of buffer | MIC, E. coli, MHB− (E. coli [3]; [5]): 0.5 μg of antimicrobial agent/mL of buffer | Fold, E. coli (E. coli [3]; [6]): 1 | MIC, S. aureus, MHB− (S. aureus [4]; antibiotic agents): >128 μg of antimicrobial agent/mL of buffer | MIC, S. aureus, MHB+ (S. aureus [4]; antibiotic agents): >128 μg of antimicrobial agent/mL of buffer | Fold, S. aureus (S. aureus [4]; [6]): 1

Furadinozoline
MIC, E. coli, MHB− (E. coli [3]; [5]): 4 μg of antimicrobial agent/mL of buffer | MIC, E. coli, MHB+ (E. coli [3]; [7]): 4 μg of antimicrobial agent/mL of buffer | Fold, E. coli (E. coli [3]; [6]): 1 | MIC, S. aureus, MHB− (S. aureus [4]; antibiotic agents): 32 μg of antimicrobial agent/mL of buffer | MIC, S. aureus, MHB+ (S. aureus [4]; antibiotic agents): 16 μg of antimicrobial agent/mL of buffer | Fold, S. aureus (S. aureus [4]; [6]): 2

Gramicidin
MIC, E. coli, MHB− (E. coli [3]; [5]): >128 μg of antimicrobial agent/mL of buffer | MIC, E. coli, MHB+ (E. coli [3]; [7]): >128 μg of antimicrobial agent/mL of buffer | Fold, E. coli (E. coli [3]; [6]): 1 | MIC, S. aureus, MHB− (S. aureus [4]; antibiotic agents): 1 μg of antimicrobial agent/mL of buffer | MIC, S. aureus, MHB+ (S. aureus [4]; antibiotic agents): 0.25 μg of antimicrobial agent/mL of buffer | Fold, S. aureus (S. aureus [4]; [6]): 4

Hyaluronic acid
enhancement of antimicrobial activity in the presence of bicarbonate (E. coli [3]): 64 fold | MIC in MHB (S. aureus [4]): 4 µg/mL | MIC in MHB + 25 mM bicarbonate (S. aureus [4]): 0.0625 µg/mL | enhancement of antimicrobial activity in the presence of bicarbonate (S. aureus [4]; S. aureus, 25 mM sodium bicarbonate): 64 fold

Lysozyme
effect of 25 mM sodium bicarbonate on antibacterial activity (E. coli [3]; E. coli, result in words): enhanced | MIC in MHB (S. aureus [4]): >256** μg/mL | MIC in MHB + 25 mM bicarbonate (S. aureus [4]): >256** μg/mL

Neomycin
Fold, E. coli (E. coli [3]): 4 | Fold, S. aureus (S. aureus [4]): 4 | MIC, S. aureus, MHB− (S. aureus [4]): 2 | MIC, S. aureus, MHB+ (S. aureus [4]): 0.5

Nisin
MIC, E. coli, MHB− (E. coli [3]; [5]): >128 μg of antimicrobial agent/mL of buffer | MIC, E. coli, MHB+ (E. coli [3]; [7]): >128 μg of antimicrobial agent/mL of buffer | Fold, E. coli (E. coli [3]; [6]): 1 | MIC, S. aureus, MHB− (S. aureus [4]; antibiotic agents): >128 μg of antimicrobial agent/mL of buffer | MIC, S. aureus, MHB+ (S. aureus [4]; antibiotic agents): >128 μg of antimicrobial agent/mL of buffer | Fold, S. aureus (S. aureus [4]; [6]): 1

Polyhexanide
Fold, E. coli (E. coli [3]): 2 | MIC, E. coli, MHB (E. coli [3]): 1 μg of antimicrobial agent/mL of buffer | MIC, E. coli, MHB+ (E. coli [3]): 0.5 μg of antimicrobial agent/mL of buffer | MIC, S. aureus, MHB (S. aureus [4]; antiseptic agents): 0.5 μg of antimicrobial agent/mL of buffer | MIC, S. aureus, MHB+ (S. aureus [4]; antiseptic agents): 0.25 μg of antimicrobial agent/mL of buffer | Fold, S. aureus (S. aureus [4]; [8]): 2

Polymyxin B
Fold, E. coli (E. coli [3]): −2 | Fold, S. aureus (S. aureus [4]): 8 | MIC, S. aureus, MHB− (S. aureus [4]): 256 | MIC, S. aureus, MHB+ (S. aureus [4]): 32 | effect of 25 mM sodium bicarbonate on antibacterial activity (S. aureus [4]; S. aureus, result in words): enhanced

Polyvinylpyrrolidone iodine complex
MIC, E. coli, MHB (E. coli [3]; antiseptic agents, MHB in the absence of sodium bicarbonate): >128 μg of antimicrobial agent/mL of buffer | MIC, E. coli, MHB+ (E. coli [3]; antiseptic agents, MHB in the presence of 25 mM sodium bicarbonate): >128 μg of antimicrobial agent/mL of buffer | Fold, E. coli (E. coli [3]; [8]): 1 | MIC, S. aureus, MHB (S. aureus [4]; antiseptic agents): >128 μg of antimicrobial agent/mL of buffer | MIC, S. aureus, MHB+ (S. aureus [4]; antiseptic agents): >128 μg of antimicrobial agent/mL of buffer | Fold, S. aureus (S. aureus [4]; [8]): 1

Teicoplanin
MIC, E. coli, MHB+ (E. coli [3]): 128 μg of antimicrobial agent/mL of buffer | MIC, E. coli, MHB− (E. coli [3]; [5]): 128 μg of antimicrobial agent/mL of buffer | Fold, E. coli (E. coli [3]; [6]): 1 | MIC, S. aureus, MHB− (S. aureus [4]; antibiotic agents): 1 μg of antimicrobial agent/mL of buffer | MIC, S. aureus, MHB+ (S. aureus [4]; antibiotic agents): 2 μg of antimicrobial agent/mL of buffer | Fold, S. aureus (S. aureus [4]; [6]): −2
